Data as given in ChEMBL document CHEMBL4190340, “Studies on the cytotoxicity and anticancer performance of heterocyclic hypervalent organobismuth(III) compounds” (Eur J Med Chem, 2017).
Calls of active or inactive are those of the source. No cut-off for these calls is given here.

What was measured:
SGC-7901 = experiment: Cytotoxicity against human SGC7901 cells assessed as reduction in cell viability after 48 hrs by CCK8 assay; assay type: functional, cell-based
A549 [1] = experiment: Induction of apoptosis in human A549 cells assessed as early apoptotic cells by Annexin V-FITC/propidium iodide staining based flow cytometric analysis (reference value: 1.43%); assay type: functional, cell-based
A549 [2] = experiment: Induction of apoptosis in human A549 cells assessed as early apoptotic cells in presence of z-VAD-fmk by Annexin V-FITC/propidium iodide staining based flow cytometric analysis (reference value: 1.43%); assay type: functional, cell-based
A549 [3] = experiment: Induction of apoptosis in human A549 cells after 48 hrs by Annexin V-FITC/propidium iodide staining based flow cytometric analysis; assay type: functional, cell-based
A549 [4] = experiment: Induction of apoptosis in human A549 cells assessed as necrotic cells at 3 uM after 48 hrs by Annexin V-FITC/propidium iodide staining based flow cytometric analysis (reference value: 1.21%); assay type: functional, cell-based
A549 [5] = experiment: Induction of apoptosis in human A549 cells assessed as cell shrinkage at 10 uM after 48 hrs by Annexin V-FITC/propidium iodide staining based laser scanning confocal microscopic analysis; assay type: functional
A549 [6] = experiment: Induction of apoptosis in human A549 cells assessed as late apoptotic cells by Annexin V-FITC/propidium iodide staining based flow cytometric analysis (reference value: 1.66%); assay type: functional, cell-based
A549 [7] = experiment: Induction of apoptosis in human A549 cells assessed as necrotic cells by Annexin V-FITC/propidium iodide staining based flow cytometric analysis (reference value: 0.96%); assay type: functional, cell-based
SW480 = experiment: Cytotoxicity against human SW480 cells assessed as reduction in cell viability after 48 hrs by CCK8 assay; assay type: functional, cell-based
A549 [8] = experiment: Induction of apoptosis in human A549 cells assessed as late apoptotic cells at 10 uM after 48 hrs by Annexin V-FITC/propidium iodide staining based flow cytometric analysis (reference value: 1.73%); assay type: functional, cell-based
A549 [9] = experiment: Induction of apoptosis in human A549 cells assessed as nuclear enrichment at 10 uM after 48 hrs by Annexin V-FITC/propidium iodide staining based laser scanning confocal microscopic analysis; assay type: functional, cell-based
A549 [10] = experiment: Induction of apoptosis in human A549 cells assessed as necrotic cells at 10 uM after 48 hrs by Annexin V-FITC/propidium iodide staining based flow cytometric analysis (reference value: 1.21%); assay type: functional, cell-based
A549 [11] = experiment: Cytotoxicity against human A549 cells assessed as reduction in cell viability after 48 hrs by CCK8 assay; assay type: functional, cell-based
Homo sapiens = organism: Homo sapiens; experiment: Cytotoxicity against human […] cells assessed as reduction in cell viability after 48 hrs by CCK8 assay; assay type: functional, cell-based
A549 [12] = experiment: Induction of apoptosis in human A549 cells assessed as reduction in pro caspase 3 level at 10 uM after 24 hrs by Western blot analysis; assay type: functional, cell-based
A549 [13] = experiment: Induction of apoptosis in human A549 cells assessed as necrotic cells in presence of z-VAD-fmk by Annexin V-FITC/propidium iodide staining based flow cytometric analysis (reference value: 0.96%); assay type: functional, cell-based
A549 [14] = experiment: Downregulation of Bcl-2 protein level in human A549 cells at 3 to 10 uM after 24 hrs by Western blot analysis; assay type: functional, cell-based
A549 [15] = experiment: Induction of apoptosis in human A549 cells assessed as late apoptotic cells at 3 uM after 48 hrs by Annexin V-FITC/propidium iodide staining based flow cytometric analysis (reference value: 1.73%); assay type: functional, cell-based
A549 [16] = experiment: Upregulation of Bax mRNA expression in human A549 cells at 10 uM after 24 hrs by qRT-PCR analysis; assay type: functional, cell-based
A549 [17] = experiment: Induction of apoptosis in human A549 cells assessed as membrane blebbing at 10 uM after 48 hrs by Annexin V-FITC/propidium iodide staining based laser scanning confocal microscopic analysis; assay type: functional, cell-based
A549 [18] = experiment: Induction of apoptosis in human A549 cells assessed as connection disappearance at 10 uM after 48 hrs by Annexin V-FITC/propidium iodide staining based laser scanning confocal microscopic analysis; assay type: functional, cell-based
A549 [19] = experiment: Induction of apoptosis in human A549 cells assessed as late apoptotic cells in presence of z-VAD-fmk by Annexin V-FITC/propidium iodide staining based flow cytometric analysis (reference value: 1.66%); assay type: functional, cell-based
A549 [20] = experiment: Induction of apoptosis in human A549 cells assessed as early apoptotic cells at 10 uM after 48 hrs by Annexin V-FITC/propidium iodide staining based flow cytometric analysis (reference value: 2.89%); assay type: functional, cell-based
A549 [21] = experiment: Downregulation of Bcl-2 mRNA expression in human A549 cells at 10 uM after 24 hrs by qRT-PCR analysis; assay type: functional, cell-based
A549 [22] = experiment: Upregulation of Bax protein level in human A549 cells at 3 to 10 uM after 24 hrs by Western blot analysis; assay type: functional, cell-based
A549 [23] = experiment: Induction of apoptosis in human A549 cells assessed as early apoptotic cells at 3 uM after 48 hrs by Annexin V-FITC/propidium iodide staining based flow cytometric analysis (reference value: 2.89%); assay type: functional, cell-based

With “5H-dibenzo[c,f][1,5]oxabismocin-12(7H)-yl nitrate” the Activity (SGC-7901) was “Dose-dependent effect”, the Activity (A549 [1]) was 18.6% and the Activity (A549 [2]) was 3.19%. For the same substance, the Activity (A549 [3]) was “Dose-dependent effect”, the Activity (A549 [4]) was 0.617% and the Activity (A549 [5]) was “Active”. The Activity (A549 [6]) was 10.2%, the Activity (A549 [7]) was 2.24% and the Activity (SW480) was “Dose-dependent effect”. The Activity (A549 [8]) was 4.24%, the Activity (A549 [9]) was “Active” and the Activity (A549 [10]) was 6.68%. For the same substance, the Activity (A549 [11]) was “Dose-dependent effect”, the Activity (Homo sapiens) was “Dose-dependent effect” and the Activity (A549 [12]) was “Active”. For the same substance, the Activity (A549 [13]) was 2.66%, the Activity (A549 [14]) was “Active” and the Activity (A549 [15]) was 4.16%. The Activity (A549 [16]) was “Active”, the Activity (A549 [17]) was “Active” and the Activity (A549 [18]) was “Active”. The Activity (A549 [19]) was 5.26%, the Activity (A549 [20]) was 17.4% and the Activity (A549 [21]) was “Active”. For the same substance, the Activity (A549 [22]) was “Active” and the Activity (A549 [23]) was 5.18%.
